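All cell lines were grown in 96-well plates and treated with compound for 48 hours. Abbreviation: GI50, concentration required for 50% inhibition of growth.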 Active and inactive are the calls of the source. Rule as the data show it: active = GI50 up to about 1.1 µM and inactive = higher.
Columns and labels:
Assay in all cases: NCI-60 cell line screen, 48 h
[1] = system: SF-268
[2] = system: KM12
[3] = system: A498
[4] = system: TK-10
[5] = system: OVCAR-4
[6] = system: HOP-62
[7] = system: NCI-H522
[8] = system: NCI-H23
[9] = system: HOP-92
[10] = system: HT-29
[11] = system: SNB-19
[12] = system: OVCAR-8
[13] = system: RPMI-8226
[14] = system: DMS-273
[15] = system: MOLT-4
[16] = system: CAKI-1
[17] = system: SN12C
[18] = system: LOX IMVI
[19] = system: NCI-H226

SMILES | GI50 [1] | GI50 [2] | GI50 [3] | GI50 [4] | GI50 [5] | GI50 [6] | GI50 [7] | GI50 [8] | GI50 [9] | GI50 [10] | GI50 [11] | GI50 [12] | GI50 [13] | GI50 [14] | GI50 [15] | GI50 [16] | GI50 [17] | GI50 [18] | GI50 [19]
C[C@]12CCC(=O)CC1CCCC2=O (some centres undefined) | > 100 µM (inactive) | > 100 µM (inactive) | > 100 µM (inactive) | > 100 µM (inactive) | > 100 µM (inactive) | > 100 µM (inactive) | > 100 µM (inactive) | > 100 µM (inactive) | > 100 µM (inactive) | > 100 µM (inactive) | > 100 µM (inactive) | > 100 µM (inactive) | > 100 µM (inactive) | > 100 µM (inactive) | > 100 µM (inactive) | > 100 µM (inactive) | > 100 µM (inactive) | > 100 µM (inactive) | –
CC1S(=O)(=O)OCCOS1(=O)=O | 32.1 µM (inactive) | > 100 µM (inactive) | > 100 µM (inactive) | > 100 µM (inactive) | > 100 µM (inactive) | > 100 µM (inactive) | > 78 µM (inactive) | > 76.9 µM (inactive) | > 100 µM (inactive) | > 100 µM (inactive) | 39.7 µM (inactive) | > 100 µM (inactive) | > 100 µM (inactive) | 60 µM (inactive) | 18 µM (inactive) | 53.3 µM (inactive) | 77.4 µM (inactive) | 52.2 µM (inactive) | > 100 µM (inactive)
CP(=O)(CCSc1ccccc1)c1ccccc1 (centres undefined) | > 100 µM (inactive) | – | > 100 µM (inactive) | > 100 µM (inactive) | > 100 µM (inactive) | > 100 µM (inactive) | – | > 100 µM (inactive) | > 100 µM (inactive) | > 100 µM (inactive) | > 100 µM (inactive) | > 100 µM (inactive) | > 100 µM (inactive) | > 100 µM (inactive) | > 100 µM (inactive) | > 100 µM (inactive) | > 100 µM (inactive) | > 100 µM (inactive) | > 100 µM (inactive)
CCOC(=O)C1=C(NC)OCC1=O | > 100 µM (inactive) | > 100 µM (inactive) | > 100 µM (inactive) | > 100 µM (inactive) | > 100 µM (inactive) | > 100 µM (inactive) | > 100 µM (inactive) | > 100 µM (inactive) | > 100 µM (inactive) | > 100 µM (inactive) | > 100 µM (inactive) | > 100 µM (inactive) | > 100 µM (inactive) | > 100 µM (inactive) | – | > 100 µM (inactive) | > 100 µM (inactive) | > 100 µM (inactive) | > 100 µM (inactive)
FC(F)(F)c1nc(-c2ccccc2)oc1Sc1oc(-c2ccccc2)nc1C(F)(F)F | 52.5 µM (inactive) | > 100 µM (inactive) | > 100 µM (inactive) | > 100 µM (inactive) | 19.7 µM (inactive) | 58.7 µM (inactive) | 45.8 µM (inactive) | > 100 µM (inactive) | 39.1 µM (inactive) | > 100 µM (inactive) | 87.3 µM (inactive) | 36.7 µM (inactive) | 93.3 µM (inactive) | 66.7 µM (inactive) | > 100 µM (inactive) | 26.8 µM (inactive) | > 100 µM (inactive) | > 100 µM (inactive) | 45.2 µM (inactive)
CC#N.O[C@@H]1CCCC[C@@H]1O.O[C@@H]1CCCC[C@@H]1O.[TeH2] | 69.2 µM (inactive) | 50.8 µM (inactive) | 30.4 µM (inactive) | > 100 µM (inactive) | 31.8 µM (inactive) | 41.7 µM (inactive) | 37.3 µM (inactive) | 21.2 µM (inactive) | 26.1 µM (inactive) | 33.4 µM (inactive) | 33.1 µM (inactive) | 21.8 µM (inactive) | 37.2 µM (inactive) | 19.6 µM (inactive) | 13.8 µM (inactive) | > 100 µM (inactive) | 24.2 µM (inactive) | 10.6 µM (inactive) | 40.6 µM (inactive)
CN1C/C(=C\c2ccc(C(=O)O)cc2)C(=O)/C(=C/c2ccc(C(=O)O)cc2)C1 | > 100 µM (inactive) | > 100 µM (inactive) | > 100 µM (inactive) | > 100 µM (inactive) | > 100 µM (inactive) | > 100 µM (inactive) | – | > 100 µM (inactive) | > 100 µM (inactive) | > 100 µM (inactive) | – | > 100 µM (inactive) | > 100 µM (inactive) | > 100 µM (inactive) | > 100 µM (inactive) | > 100 µM (inactive) | > 100 µM (inactive) | > 100 µM (inactive) | > 100 µM (inactive)
COc1cc([C@@H]2c3cc4c(cc3[C@@H](NC(=O)c3ccc(C#N)cc3)C3COC(=O)[C@@H]32)OCO4)cc(OC)c1O (some centres undefined) | 0.847 µM (active) | 1.02 µM (active) | 1.02 µM (active) | 1.81 µM (inactive) | 8.93 µM (inactive) | 0.113 µM (active) | 0.451 µM (active) | 0.198 µM (active) | 0.586 µM (active) | 1.25 µM (inactive) | 0.348 µM (active) | 0.719 µM (active) | 2.84 µM (inactive) | 0.0276 µM (active) | 3.63 µM (inactive) | 1.14 µM (inactive) | 0.207 µM (active) | 0.26 µM (active) | 0.0176 µM (active)
COc1ccc(C=O)c(NC(=O)C(C)C)c1 | 36.2 µM (inactive) | > 10 µM (inactive) | 49.7 µM (inactive) | 85.7 µM (inactive) | 27 µM (inactive) | – | 15.9 µM (inactive) | 26 µM (inactive) | 18.2 µM (inactive) | 66.7 µM (inactive) | 72.1 µM (inactive) | 30.8 µM (inactive) | 20.5 µM (inactive) | 28.9 µM (inactive) | 21.3 µM (inactive) | – | 23 µM (inactive) | 31.7 µM (inactive) | > 10 µM (inactive)
CN(C)CC1(Cc2ccccc2)CC/C(=C\c2ccccc2)C1=O (centres undefined) | 61 µM (inactive) | 40.3 µM (inactive) | 33.1 µM (inactive) | > 100 µM (inactive) | 51.3 µM (inactive) | > 100 µM (inactive) | 15.2 µM (inactive) | 44.8 µM (inactive) | 51.4 µM (inactive) | 20.7 µM (inactive) | 22.2 µM (inactive) | 34.5 µM (inactive) | 23.9 µM (inactive) | 36.5 µM (inactive) | 24 µM (inactive) | 49.1 µM (inactive) | 69.2 µM (inactive) | 29.6 µM (inactive) | 92.9 µM (inactive)
O=c1cc2ccccc2nn1Cc1ccccc1Cl | > 100 µM (inactive) | > 100 µM (inactive) | > 100 µM (inactive) | > 100 µM (inactive) | > 100 µM (inactive) | > 100 µM (inactive) | – | 88.9 µM (inactive) | 71.9 µM (inactive) | > 100 µM (inactive) | > 100 µM (inactive) | > 100 µM (inactive) | 92.5 µM (inactive) | > 100 µM (inactive) | – | > 100 µM (inactive) | > 100 µM (inactive) | > 100 µM (inactive) | > 100 µM (inactive)
COC(=O)[C@H](Cc1ccccc1)NC(=O)/C(=C/C(C)C)NC(=O)[C@H](CCSC)NC=O | > 100 µM (inactive) | > 100 µM (inactive) | > 100 µM (inactive) | > 100 µM (inactive) | > 100 µM (inactive) | > 100 µM (inactive) | > 100 µM (inactive) | > 100 µM (inactive) | > 100 µM (inactive) | > 100 µM (inactive) | > 100 µM (inactive) | > 100 µM (inactive) | > 100 µM (inactive) | > 100 µM (inactive) | > 100 µM (inactive) | > 100 µM (inactive) | > 100 µM (inactive) | > 100 µM (inactive) | > 100 µM (inactive)
COC1(Cc2ccccc2)C(=O)c2ccccc2N1C(C)=O (centres undefined) | – | > 100 µM (inactive) | > 100 µM (inactive) | – | > 100 µM (inactive) | > 100 µM (inactive) | – | > 100 µM (inactive) | > 100 µM (inactive) | > 100 µM (inactive) | > 100 µM (inactive) | > 100 µM (inactive) | > 100 µM (inactive) | > 100 µM (inactive) | > 100 µM (inactive) | > 100 µM (inactive) | > 100 µM (inactive) | – | –
CCOC(=O)/C=C/n1c2ccccc2c(=O)c2cc(OC)ccc21 | > 100 µM (inactive) | > 100 µM (inactive) | > 100 µM (inactive) | 74.5 µM (inactive) | > 100 µM (inactive) | > 100 µM (inactive) | 54.2 µM (inactive) | 57.1 µM (inactive) | 57.9 µM (inactive) | 38.5 µM (inactive) | 61.2 µM (inactive) | > 100 µM (inactive) | – | 49 µM (inactive) | > 100 µM (inactive) | > 100 µM (inactive) | > 100 µM (inactive) | 20.7 µM (inactive) | > 100 µM (inactive)
COC(=O)C1=C(OC)c2cc3c(cc2C(c2cc(OC)c(OC)c(OC)c2)C1C(=O)OC)OCO3 (centres undefined) | > 100 µM (inactive) | > 100 µM (inactive) | 43.2 µM (inactive) | > 100 µM (inactive) | > 100 µM (inactive) | > 100 µM (inactive) | – | > 100 µM (inactive) | 48.9 µM (inactive) | > 100 µM (inactive) | – | 79.3 µM (inactive) | 40.6 µM (inactive) | > 100 µM (inactive) | 30.5 µM (inactive) | > 100 µM (inactive) | > 100 µM (inactive) | > 100 µM (inactive) | > 100 µM (inactive)
C/C(=N\NC(=S)Nc1ccc([N+](=O)[O-])cc1S(=O)(=O)O)c1ccccn1 | 95.3 µM (inactive) | 51.8 µM (inactive) | 36.7 µM (inactive) | 37.4 µM (inactive) | 36.8 µM (inactive) | 76.9 µM (inactive) | – | 69.3 µM (inactive) | 41.9 µM (inactive) | 34.6 µM (inactive) | – | 34.3 µM (inactive) | 40 µM (inactive) | 37 µM (inactive) | 40.1 µM (inactive) | 52.8 µM (inactive) | 59 µM (inactive) | 53.2 µM (inactive) | 37.4 µM (inactive)
